The record followed here is PMC7577125 (Antimicrobial Agents and Chemotherapy, 2020).

In assay [1] the test system is HBV. The assay can be described thus: Extracellular HBV DNA and pgRNA in HepAD38 cells (qPCR, RT-qPCR). In kind it is cell-based, Hepatitis B virus. To be noted: HepAD38; concn ETV 0.01, ABI-H0731 2.0, GLS4 0.5, NVR 3-778 2.5, AT-130 0.8, VRD-32 0.8 μM. The text has this:
For HBV RNA Northern blot analysis, total cellular RNA or encapsidated pgRNA samples were resolved in a 1.5% agarose gel containing 2.2 M formaldehyde and transferred onto a Hybond-XL membrane (GE Healthcare). For DNA Southern blot analysis, HBV core DNA or cccDNA samples were resolved by electrophoresis in a 1.2% agarose gel and blotted onto a Hybond-XL membrane. Membranes were probed with either an [α-^32P]UTP (3,000 Ci/mmol; PerkinElmer)-labeled plus-strand-specific (for Northern blot hybridization) or minus-strand-specific (for Southern blot hybridization) HBV riboprobe and exposed to a phosphorimager screen. Extracellular HBV DNA and RNA were copurified from the culture medium of induced HepAD38 cells by using a MinElute virus vacuum kit (Qiagen). Viral DNA was quantified using the above-mentioned qPCR method directly, and HBV RNA was detected by RT-qPCR with the same core region primer/probe set after the removal of DNA contamination by DNase I (Thermo Fisher) treatment.
(In qPCR the cycle at which signal appears reflects the starting amount.)

For a further assay, the system named is HBV Cp I105T. The assay can be described thus: microbe, parasite or virus in culture. The note with it: for EC50: Hepatitis B virus, Huh-7, read-out: Mean EC50; for Fold shift: I105T vs wild type. In kind it is cell-based, Hepatitis B virus.
In the next assay the test system is HBV Cp D29G. Nature of the assay: microbe, parasite or virus in culture. It counts as cell-based, Hepatitis B virus. To be noted: for Fold shift: D29G vs wild type; for EC50: Hepatitis B virus, Huh-7, read-out: Mean EC50.
For a further assay, the system named is HBV Cp I105L. The assay can be described thus: microbe, parasite or virus in culture. In kind it is cell-based, Hepatitis B virus. The note with it: for EC50: Hepatitis B virus, Huh-7, read-out: Mean EC50; for Fold shift: I105L vs wild type.
A further assay deals with HBV Cp T109M. Nature of the assay: microbe, parasite or virus in culture. In kind it is cell-based, Hepatitis B virus. The note with it: for EC50: Hepatitis B virus, Huh-7, read-out: Mean EC50; for Fold shift: T109M vs wild type.
The next assay concerns HBV Cp Y38C. Nature of the assay: microbe, parasite or virus in culture. In kind it is cell-based, Hepatitis B virus. To be noted: for EC50: Hepatitis B virus, Huh-7, read-out: Mean EC50; for Fold shift: Y38C vs wild type.
In assay [2] the test system is HBV. Nature of the assay: HBV RNA/DNA analyses in induced HepAD38 cells (Northern/Southern blot). The note with it: HepAD38, 10-fold over VR EC50. It counts as cell-based, Hepatitis B virus.
Another assay deals with HBV Cp Wild type. The assay can be described thus: microbe, parasite or virus in culture. The note with it: for EC50: Hepatitis B virus, Huh-7, read-out: Mean EC50; for Fold shift: Wild type. It counts as cell-based, Hepatitis B virus.
The next assay concerns HBV Cp Y118F. Nature of the assay: microbe, parasite or virus in culture. In kind it is cell-based, Hepatitis B virus. To be noted: for EC50: Hepatitis B virus, Huh-7, read-out: Mean EC50; for Fold shift: Y118F vs wild type.
For assay [3], the system named is HBV (genotype D, subtype ayw). The assay can be described thus: HBV replication assay in HepAD38 cells. In kind it is cell-based, Hepatitis B virus. The note with it: Hepatitis B virus, HePAD38, HepAD38; total intracellular viral DNA; read-out: Mean EC50, viral DNA.
The next assay deals with HBV Cp T33N. The assay can be described thus: microbe, parasite or virus in culture. In kind it is cell-based, Hepatitis B virus. To be noted: for EC50: Hepatitis B virus, Huh-7, read-out: Mean EC50; for Fold shift: T33N vs wild type.
A further assay has as its system HBV Cp Y38F. Nature of the assay: microbe, parasite or virus in culture. In kind it is cell-based, Hepatitis B virus. To be noted: for EC50: Hepatitis B virus, Huh-7, read-out: Mean EC50; for Fold shift: Y38F vs wild type.
The test system of assay [4] is HBV. The assay can be described thus: HBV infection of HepG2-NTCP cells. It counts as cell-based. The note with it: Hepatitis B virus.
The test system of a further assay is HBV Cp T109I. Nature of the assay: microbe, parasite or virus in culture. In kind it is cell-based, Hepatitis B virus. To be noted: for EC50: Hepatitis B virus, Huh-7, read-out: Mean EC50; for Fold shift: T109I vs wild type.
For assay [5], the system named is HBV. The assay can be described thus: HBV infection of primary human hepatocytes (PHHs). In kind it is cell-based. To be noted: Hepatitis B virus, Hepatocyte, PHH.
The next assay deals with HBV Cp P25A. Nature of the assay: microbe, parasite or virus in culture. To be noted: for EC50: Hepatitis B virus, Huh-7, read-out: Mean EC50; for Fold shift: P25A vs wild type. It counts as cell-based, Hepatitis B virus.
[6] abbreviates: total intracellular viral DNA, read-out: Mean EC50, viral DNA.

Some results are limits rather than exact numbers.

For the compound `COc1ccccc1/C(Br)=C(/NC(=O)c1ccc([N+](=O)[O-])cc1)C(=O)N1CCCCC1` [AT-130], in the assay on HBV [1], the “Extracellular DNA content (% of DMSO control)” value is reported as 5.3 % of DMSO control and the “Extracellular pgRNA content (% of DMSO control)” value is given as 8.6 % of DMSO control.

By EC50 is commonly meant the concentration giving half of the maximal effect. Turning to `O=C(Nc1cc(F)c(F)c(F)c1)c1ccc(F)c(S(=O)(=O)N2CCC(O)CC2)c1` [NVR 3-778], the EC50 in the assay with HBV Cp I105T is 726 ± 98 nM; in the assay on HBV Cp D29G, 210 ± 52 nM; in the assay with HBV Cp I105L it was 127 ± 73 nM; in the assay with HBV Cp T109M, 161 ± 97 nM; in the assay with HBV Cp Y38C it was 150 ± 48 nM; with HBV Cp Wild type, 178 ± 42 nM. In addition, the EC50 is 887 ± 478 nM in the assay on HBV Cp Y118F; 238 ± 33 nM in assay [3]; more than 10000 nM in the assay on HBV Cp T33N; 208 ± 49 nM in the assay with HBV Cp Y38F; 8360 nM in the assay on HBV [4] (read-out: Mean EC50, HBeAg); 9260 nM in the assay on HBV [4] (read-out: Mean EC50, HBsAg). In addition, the EC50 came to 7600 nM in the assay on HBV [4] (read-out: Mean EC50, pgRNA); 590 ± 71 nM in the assay on HBV [4] (setting [6]); 77.4 ± 0.4 nM in the assay on HBV Cp T109I; 4010 nM in the assay with HBV [5] (read-out: Mean EC50, HBeAg); 5040 nM with HBV [5] (read-out: Mean EC50, HBsAg); 4200 nM in the assay on HBV [5] (read-out: Mean EC50, pgRNA). Further, the EC50 amounted to 1680 nM in the assay with HBV [5] (setting [6]) and 719 ± 58 nM in the assay with HBV Cp P25A. The Fold shift in the assay on HBV Cp I105T amounted to 4.1 fold; in the assay with HBV Cp D29G, 1.2 fold; in the assay on HBV Cp I105L it was 0.7 fold; in the assay on HBV Cp T109M, 0.9 fold; with HBV Cp Y38C, 0.8 fold; with HBV Cp Wild type it was 1 fold. Moreover, the Fold shift was 5 fold in the assay on HBV Cp Y118F; more than 56 fold with HBV Cp T33N; 1.2 fold with HBV Cp Y38F; 0.4 fold in the assay on HBV Cp T109I; 4 fold with HBV Cp P25A. The “Levels of encapsidated pgRNA by Northern blotting” value with HBV [2] is reported as “virtually undetectable”. Further, in the assay with HBV [1], the “Extracellular DNA content (% of DMSO control)” value is given as 1.0 % of DMSO control. Also, the “Extracellular pgRNA content (% of DMSO control)” value in the assay on HBV [1] was 2.0 % of DMSO control.

For `O=C1CO[C@H](c2cn(-c3ccc(F)cc3)nc2-c2ccc(F)cc2)N1CCc1ccc(O)cc1` [VRD-32], the EC50 in the assay on HBV Cp I105T stood at 103 ± 87 nM; in the assay on HBV Cp D29G, 13.8 ± 1 nM; in the assay on HBV Cp I105L, 40 ± 19 nM; in the assay on HBV Cp T109M it was 25 ± 23 nM; in the assay on HBV Cp Y38C it was 20 ± 1.4 nM; with HBV Cp Wild type, 16.1 ± 7.8 nM. The EC50 in the assay with HBV Cp Y118F was 805 ± 423 nM; with HBV Cp T33N, 1290 nM; in the assay on HBV Cp Y38F it was 20 ± 10 nM; in the assay on HBV Cp T109I, 15.8 ± 1.9 nM; with HBV Cp P25A, 15.9 ± 0.04 nM. In addition, the Fold shift in the assay with HBV Cp I105T is recorded as 6.4 fold; with HBV Cp D29G, 0.9 fold; in the assay with HBV Cp I105L, 2.5 fold; in the assay with HBV Cp T109M, 1.6 fold; in the assay with HBV Cp Y38C, 1.2 fold; in the assay on HBV Cp Wild type it was 1 fold. Besides, the Fold shift with HBV Cp Y118F is 50 fold; in the assay with HBV Cp T33N, 80 fold; in the assay on HBV Cp Y38F, 1.3 fold; in the assay on HBV Cp T109I it was 1 fold; in the assay with HBV Cp P25A it was 1 fold. Also, the “Levels of encapsidated pgRNA by Northern blotting” value with HBV [2] is reported as “virtually undetectable”. Further, in the assay on HBV [2], the “rcDNA detection by Southern blot” value is “could not be detected”. Further, the “Extracellular DNA content (% of DMSO control)” value with HBV [1] is 0.3 % of DMSO control. For the same compound, the “Extracellular pgRNA content (% of DMSO control)” value with HBV [1] is 0.9 % of DMSO control.
